Source: US20130316042A1, “ENHANCED RELEASE OF LIPOPHILIC INGREDIENTS FROM CHEWING GUM WITH HYDROCOLLOIDS” (CADBURY ADAMS MEXICO, S. DE R.L. DE C.V., priority 2010, published 2013)

Test: logP (octanol/water) at 25° C.
Format: physicochemical
Description: In one aspect, the lipophilic ingredient is one having a partition coefficient between octanol and water (log P (octanol/water) at 25° C.) of greater than or equal to 1.5, specifically greater than or equal to 2.0, more specifically greater than or equal to 2.5, yet more specifically greater than or equal to 3.0, still yet more specifically greater than or equal to 3.5, and more specifically greater than or equal to 4.0. The partition coefficient of material can be determined experimentally or calculated using commercially available software.

SMILES | logP | logP (octanol/water) at 25° C.
C/C=C/C=C\CC/C=C/C(=O)NCC(C)C [spilanthol, N-isobutyl-2E,6Z,8E-decatrienamide] | 3.4 | –
CCOC(=O)CNC(=O)C1CC(C)CCC1C(C)C (stereo not shown) [ethyl 2-[(5-methyl-2-propan-2-ylcyclohexanecarbonyl)amino]acetate] | 3.38 | –
CCNC(=O)C(CC)(C(C)C)C(C)C [N-ethyl-2,2-diisopropylbutanamide] | 3.6 | –
CC1CCC(C(C)C)C(O)C1 (stereo not shown) [menthol, reference compound] | 3.4 | –
CNC(=O)C(C)(C(C)C)C(C)C [N,2,3-trimethyl-2-propan-2-ylbutanamide] | 2.48 | –
CCNC(=O)C1CC(C)CCC1C(C)C (stereo not shown) [N-ethyl-p-menthane-3-carboxamide (WS-3), N-ethyl-p-menthane-3-carboxamide] | 3.81 | –
CC(C)[C@@H]1CC[C@@H](C)C[C@H]1OC(=O)CCCC(=O)O [monomenthyl glutarate] | – | 4.12
